In US5614192A, “T cell receptor peptides as therapeutics for immune-related disease” (Connective Therapeutics, Inc., priority 1993, dated 1997):
Marks after values point to notes of the source that are not given here. Ends that are not written are not given here.

Legend:
EAE [1] = assay: Prevention of EAE by immunization with TCR peptide (Example VI); type: in vivo, Lewis rats
Source text: EAE is a well-recognized rat model of the human autoimmune disease, multiple sclerosis. […] In this model, the disease is induced by injecting the subject rat with an encephalitogenic form of myelin basic protein, such as, for example, guinea pig basic protein (GPBP) or a synthetic peptide that corresponds to residues 72-89 of GPBP (GPBP(72-89)). Injection of either of these peptides in complete Freund's adjuvant (CFA) induces encephalitogenic T cell clones that utilize preferentially the rat homologs of mouse TCR Vα2 and Vβ8 genes (Chou, Y. K., et al., J. Neurosci. Res. 22:181-187 (1989); Burns, F. R., et al., J. Exp. Med. 169:27-39 (1989)).
^1 EAE was induced by SC challenge with 50 μg GPBP + 400 μg
^2 Rats were injected SC with either: (1) 100 μg of the TCR peptid
^3 Values represent the mean of the maximum severity of EAE. 0, no

[2] = system: LN cells and T cell lines; assay: Proliferation of LN cells and lines from rats protected by transfer of TCR Vβ8 peptide-specific T cells (Table 15); type: cell-based, rat
Experimental: ^1 Lymph node (LN) cells were collected 20 days after simultaneous
^2 LN cells were tested directly (NL column).
^3 T cell lines were selected from these LN cells by culture with TCR

EAE [3] = assay: Prevention and suppression of EAE by immunization with TCR Vβ8(39-59) (Table 17); type: in vivo, Lewis rats
Gp-(S87-99) = target: T1, Gp-(S87-99) (Cavia porcellus, UniProt P25188); assay: Direct ELISA, antibody reactivity (Example VII); type: binding, guinea pig
T1 construct: made in house; host or cells: chemical solid-phase synthesis

passive EAE = assay: Transfer of EAE to naive rats by GPBP-selected T cell lines from treated rats; type: in vivo
EAE [4] = assay: Prevention, suppression and treatment of EAE with TCR Vβ8-39-59 peptide (Table 25); type: in vivo, Lewis rats
LNC and T cell lines = assay: T cell proliferation after treatment of EAE with TCR Vβ8 39-59/CFA (Table 27); type: cell-based, rats
Experimental: Lymphocyte Proliferation: Activation of T cells was measured by ^3 H-Tdy uptake. 500,000 lymph node cells or 20,000 line cells in the presence of 1 million irradiated thymic accessory cells were incubated with culture medium and antigens in microtiter wells for 18 hours prior to the addition of 0.5 μBq labeled thymidine. The cell cultures were harvested onto glass fiber filters and counted by liquid scintillation techniques. Mean CPM were calculated from triplicate cultures. Standard deviations (SD) from replicate cultures varied <10% from the mean value.
^a Treated rats were injected s.q. with 50 μg TCR Vβ839-59
^b LW cells collected after the untreated group recovered from EAE

DTH (ear thickness) = assay: DTH to T cells and TCR peptides after clone transfer or peptide immunization (Table 32); type: in vivo, rats; conditions: 50 μg TCR peptide
Experimental: Transfer of DTH and protection: Delayed type hypersensitivity reactions were measured by the ear swelling assay (Offner et al., J. Neuroimmunol. 9: 147)) 24 and 48 h after injection i.d. of 20 μg antigen.
Rats received 5 million activated clone C45569 or clone C5GpBP

EAE [5] = conditions: rat, in vivo
Experimental: Male Lewis rats (225250 g) were challenged SC with 100 μg TCR

[6] = system: lymph node cells and Vβ8-44-54 selected T cell line
[7] = A. TCR Vβ8 peptide-specific T cell transfer
[8] = peptide day 0, Gp-(S87-99) challenge day 44
[9] = peptide day 0, Gp-S49S challenge day 44
[10] = peptide/CFA s.q., Day 0, listed as TCR

For “DMGHGLRLIHYSYDVNSTEKG [TCR Vβ8(39-59), 21-amino acid CDR2 peptide of rat TCR Vβ8]”, the “EAE Incidence” value (EAE [1]; 100 μg peptide/CFA SC 30 days before challenge with 50 μg GPBP/CFA) was 0/10, the “protection from EAE” value (EAE [1]; Lewis rats) was “prevented completely the induction of EAE” and the “Proliferation, GPBP Selected Line” value [2, 7] was 6 cpm × 10^-3. For the same sequence, the “Proliferation, TCR Peptide Selected Line” value [2, 7] was 52 cpm × 10^-3, the “Proliferation, LN” value ([2]; A. rats given 3 × 10^7 TCR Vβ8 peptide-specific T cells + GPBP/CFA, LN cells day 20) was 90 cpm × 10^-3 and the “Proliferation, GPBP Selected Line” value ([2]; B. Saline + GPBP/CFA) was 6 cpm × 10^-3. For the same sequence, the “Proliferation, LN” value ([2]; B. Saline + GPBP/CFA) was 8 cpm × 10^-3, the “Clinical Score” value (EAE [3]; 100 μg peptide/CFA day 0, GPBP (50 μg) challenge day 0) was 0.7 ± 0.3 and the “Clinical Score” value (EAE [3]; 100 μg peptide/CFA day 0, Gp-S49S (100 μg) challenge day 0) was 0.5. For the same sequence, the “Clinical Score” value (EAE [3]; [8]) was 0.0, the “Histological Score Br” value (EAE [3]; [8]) was 0.5 ± 0.6 and the “Histological Score Sc” value (EAE [3]; [8]) was 0.8 ± 0.5. For the same sequence, the “Clinical Score” value (EAE [3]; [9]) was 0.8, the “Histological Score Br” value (EAE [3]; [9]) was 1.8 ± 1.7 and the “Histological Score Sc” value (EAE [3]; [9]) was 2.8 ± 1.0. The “Theoretical Absorbance against Gp-(S87-99) normalized to 1:40” value (Gp-(S87-99); TCR day 0, Gp-S(87-99) d. 44, bleed d. 65) was 784 Absorbance (×10^3), the “Antisera Reactivity Against Gp-(S87-99)” value (Gp-(S87-99); TCR day 0, Gp-S(87-99) d. 44, bleed d. 65, 1:320) was 348 Absorbance (×10^3) and the “Antisera Reactivity Against Gp-(S87-99)” value (Gp-(S87-99); TCR peptide d. 0, Gp-S49S d. 48, bleed d. 74, 1:80) was 11 Absorbance (×10^3). The “increase of anti-S87-99 responses” value (Gp-(S87-99); preimmunized with TCR peptide vs not treated) was greater than 4 fold, the “Passive EAE Severity” value (passive EAE; 10^7 BP/1st line cells from treated rats) was 0 and the “Passive EAE N” value (passive EAE; 10^7 GPBP activated BP/1st line cells from treated rats i.p. into naive rats) was 0/3. For the same sequence, the “Ability to Transfer EAE” value (passive EAE; GPBP-selected T cells of rats given TCR peptide ID day 13) was “YES”, the maximum clinical severity (EAE [4]; 50 μg i.d. on day 0, 7 or 11, controls 3.4) was 1.7-1.8 and the “duration of EAE” value (EAE [4]; 50 μg i.d. on day 0, 7 or 11, controls 6.6 days) was 3 to 4 days. The EAE/TOTAL (EAE [4]; i.d. in saline, Day 0) was 5/6, the EAE/TOTAL (EAE [4]; i.d., 10 μg, day of onset) was 6/6 and the “Max Clin. Signs” value (EAE [4]; i.d., 10 μg, day of onset) was 2.8 ± 0.4. For the same sequence, the Onset (EAE [4]; i.d., 10 μg, day of onset) was 12, the Duration (EAE [4]; i.d., 10 μg, day of onset, listed as TCR) was 4.0 ± 0.9 days and the Duration (EAE [4]; i.d., 10 μg, day of onset, listed as TCR peptide) was 4.0 days. The EAE/TOTAL (EAE [4]; i.d., 50 μg, day of onset) was 9/9, the “Max Clin. Signs” value (EAE [4]; i.d., 50 μg, day of onset) was 2.8 ± 0.3 and the Onset (EAE [4]; i.d., 50 μg, day of onset) was 12. For the same sequence, the Duration (EAE [4]; i.d., 50 μg, day of onset, listed as TCR) was 3.1 ± 0.3 days, the Duration (EAE [4]; i.d., 50 μg, day of onset, listed as TCR peptide) was 3.1 days and the Duration (EAE [4]; i.d., Day 0) was 3.0 ± 1.8 days. For the same sequence, the “Max Clin. Signs” value (EAE [4]; i.d., Day 0) was 1.8 ± 1.0, the Onset (EAE [4]; i.d., Day 0) was 15 and the Duration (EAE [4]; i.d., Day 7) was 2.0 ± 1.9 days. The EAE/TOTAL (EAE [4]; i.d., Day 7) was 4/6, the “Max Clin. Signs” value (EAE [4]; i.d., Day 7) was 1.7 ± 1.4 and the Onset (EAE [4]; i.d., Day 7) was 14. The Duration (EAE [4]; i.d., Day before onset) was 2.5 ± 2.1 days, the EAE/TOTAL (EAE [4]; i.d., Day before onset) was 6/8 and the “Max Clin. Signs” value (EAE [4]; i.d., Day before onset) was 1.8 ± 1.3. The Onset (EAE [4]; i.d., Day before onset) was 12, the “rats with onset of EAE completely prevented” value (EAE [4]; injection after GP-MBP challenge but before onset) was 4/19 and the “rats with all clinical signs of EAE completely suppressed” value (EAE [4]; injection at the same time as GP-MBP challenge) was 6/19. The Duration (EAE [4]; peptide/CFA s.q., Day 0) was 2.0 days, the EAE/TOTAL (EAE [4]; peptide/CFA s.q., Day 0) was 8/13 and the “Max Clin. Signs” value (EAE [4]; peptide/CFA s.q., Day 0) was 1.3. For the same sequence, the Onset (EAE [4]; peptide/CFA s.q., Day 0) was 13, the Duration (EAE [4]; [10]) was 2.0 ± 1.8 days and the “Max Clin. Signs” value (EAE [4]; [10]) was 1.3 ± 1.1. For the same sequence, the Duration (EAE [4]; peptide/CFA s.q., Day -40) was 0 ± 0 days, the EAE/TOTAL (EAE [4]; peptide/CFA s.q., Day -40) was “complete protection against clinical EAE” and the “Max Clin. Signs” value (EAE [4]; peptide/CFA s.q., Day -40) was 0 ± 0. The EAE/TOTAL (EAE [4]; peptide/CFA s.q., Day -40, listed as TCR) was 0/20, the Duration (EAE [4]; peptide/CFA s.q., Day onset) was 3.5 days and the EAE/TOTAL (EAE [4]; peptide/CFA s.q., Day onset) was 20/20. For the same sequence, the “Max Clin. Signs” value (EAE [4]; peptide/CFA s.q., Day onset) was 2.3 ± 0.9, the Onset (EAE [4]; peptide/CFA s.q., Day onset) was 12 and the Duration (EAE [4]; peptide/CFA s.q., Day onset, listed as TCR) was 3.5 ± 1.4 days. For the same sequence, the Duration (EAE [4]; peptide/CFA, Day 10) was 3.6 ± 0.9 days, the EAE/TOTAL (EAE [4]; peptide/CFA, Day 10) was 5/5 and the “Max Clin. Signs” value (EAE [4]; peptide/CFA, Day 10) was 2.8 ± 0.4. The Onset (EAE [4]; peptide/CFA, Day 10) was 13, the “net proliferation of reactive cells” value (LNC and T cell lines; GP-MBP-selected line from TCR peptide-treated rats) was 49,000 CPM and the “net proliferation of reactive cells” value (LNC and T cell lines; GP-MBP-selected line from untreated EAE-recovered rats) was 9,000 CPM. It also gave a Proliferation (LNC and T cell lines; Treated rats (TCR Vβ8 39-59/CFA at onset), LNC) of 39 ± 4 CPM/1000, a Proliferation (LNC and T cell lines; Treated rats, line BP/1st) of 66 ± 6 CPM/1000 and a Proliferation (LNC and T cell lines; Treated rats, line Vβ8/1st) of 85 ± 2 CPM/1000. It also gave a Proliferation (LNC and T cell lines; Untreated rats (GPBP/CFA only), LNC) of 34 ± 4 CPM/1000, a Proliferation (LNC and T cell lines; Untreated rats, line BP/1st) of 24 ± 3 CPM/1000 and a Proliferation (LNC and T cell lines; Untreated rats, line Vβ8/1st) of 34 ± 2 CPM/1000. For the same sequence, the Proliferation (LNC and T cell lines; Untreated rats, line Vβ14/1st) was 11 ± 1 CPM/1000, the “DTH, change in ear thickness 48 h” value (DTH (ear thickness); Immunization None) was 3 ± 1 and the “DTH, change in ear thickness 48 h” value (DTH (ear thickness); rats given 5 million C5Gp-BP (Vβ8.2+)) was 6 ± 3. The “DTH, change in ear thickness 48 h” value (DTH (ear thickness); rats given C455-69) was 17 ± 2, the “DTH, change in ear thickness 48 h” value (DTH (ear thickness); rats immunized with Vβ8.239-59 peptide/CFA) was 39 ± 9 and the “DTH, change in ear thickness 48 h” value (DTH (ear thickness); rats immunized with Vβ8.639-59 peptide/CFA) was 27 ± 4. The “Clinical Signs of EAE” value (EAE [5]) was “None”, the “Response of Lymph Node Cells” value [6] was 38 ± 3 and the “Response of T Cell Line” value [6] was 102 ± 10.
